Measurements taken from patent US5872150A, “Treatment of prostate disease with a nonsteroidal anti-androgenic compound” (Merck & Co., Inc., priority 1997, dated 1999).
Entries after “also recorded” stand apart in the source; their conditions may differ.

Tests used:
[1] = test system: probasin luciferase reporter gene; assay: Ligand dependent transcription assay, CV1 cells with probasin reporter gene and control plasmid, no AR (pPBluc); format: cell-based, rat
Method: Ligand dependent transcription assays were performed as described in Schnmidt et al. "Identification of a new member of the steroid hormone receptor superfamily that is activated by a peroxisome proliferator and fatty acids," Mol. Endocrinol. […] A luciferase cDNA expressed under the control of the promoter region of the probasin gene that confers androgen receptor dependent transcription was used as a reporter gene, see Rennie et al. "Characterization of two cis-acting DNA elements involved in the androgen regulation of the probasin gene" Mol Endocrinol. […] Transient transfection of CV1 cells was performed by plating cells (1.5×10^5 per mL) into 12 well dishes in phenol red-free medium supplemented with 10% fetal calf serum treated with activated charcoal to remove endogenous steroids. Cells were then transfected the following day by addition of a calcium phosphate precipitate of plasmid DNA. Cells were then washed with fresh media after an overnight incubation and ligands were added. Cell extracts were prepared after forty eight hours and assayed for luciferase enzyme activity using the Luciferase Assay System (Promega). Each transfection was performed in triplicate and the […] of each sample was measured using the AutoChemiluminometer (Berthold).

DDT1 cells = assay: DDT1 Assay: androgen (testosterone) dependent growth of DDT1 cells, MTS proliferation; format: cell-based, Syrian hamster
Method: Cells were plated in a 96 well plate at 2,000 cells/well in DFITS+0.1% fetal calf serum. […] Cell growth data were normalized to the greatest number of cells and error bars represent +/- one standard error of the mean (sem).
Media was charged every 48 hours. Cells were plated at ~2,000/well in 96-well plates or ~6,000 cells/cm^2 in DMEM: F12 (GIBCO BRL) nutrient mixture (1:)+ITS™ (insulin, transferrin, selenious acid) (Collaborative Biomedical Products/Becton Dickinson Labware) (final concentrations 5 μg/mL insulin, 5 μ/mL transferrin, 5 ng/mL selenious acid) (DFITS media)+0.1% bovine calf serum (Hyclon®, BCS defined, iron supplemented).
After 24 hours, the cells were washed with the same media except without added serum and replaced with fresh serum-free DFITS medium (day 0).
In a typical experiment, cells were plated in sets of 12 in the presence of either a mock ethanol control (0.1-0.2% total volume) or N-(4-chlorophenyl)-(Z,Z)-2,3-bis(cyclopropylmethylene) cyclopentane carboxamide dissolved in 100% ethanol as a 1000X concentrated stock solution. Cell growth was then measured using a CellTiter96™ Non-Radioactive Cell Proliferation Assay (Promega Corporation) according to the manufacturer's protocol using a Bio Kinetics EL 340 microplate reader (BioTek Instruments, Inc.). 3-(4,5-dimethylthiazol-2-yl)-5-(3-carboxyl methoxyphenyl)-2-(4-sulfophenyl)-2H-tetrazolium (MTS) was diluted into media at a final concentration of 333 μg/mL and penazine methosulfate (PMS) was used at a final concentration of 25 μM with a total volume per well of 100 μL. Plates were then incubated for one hour at 37° C. in a humidified 5% CO2 atmosphere.

androgen receptor [2] = molecular target: T1, androgen receptor (Homo sapiens, UniProt P10275); assay: Ligand dependent transcription assay, CV1 cells co-transfected with AR and probasin luciferase reporter (pPBluc + AR); format: cell-based; design: expressed in transfected cells; host or cells: CV1 cells, transient co-transfection of pSGAR with the probasin-luciferase reporter pPBluc
T1 sequence (P10275 1-920): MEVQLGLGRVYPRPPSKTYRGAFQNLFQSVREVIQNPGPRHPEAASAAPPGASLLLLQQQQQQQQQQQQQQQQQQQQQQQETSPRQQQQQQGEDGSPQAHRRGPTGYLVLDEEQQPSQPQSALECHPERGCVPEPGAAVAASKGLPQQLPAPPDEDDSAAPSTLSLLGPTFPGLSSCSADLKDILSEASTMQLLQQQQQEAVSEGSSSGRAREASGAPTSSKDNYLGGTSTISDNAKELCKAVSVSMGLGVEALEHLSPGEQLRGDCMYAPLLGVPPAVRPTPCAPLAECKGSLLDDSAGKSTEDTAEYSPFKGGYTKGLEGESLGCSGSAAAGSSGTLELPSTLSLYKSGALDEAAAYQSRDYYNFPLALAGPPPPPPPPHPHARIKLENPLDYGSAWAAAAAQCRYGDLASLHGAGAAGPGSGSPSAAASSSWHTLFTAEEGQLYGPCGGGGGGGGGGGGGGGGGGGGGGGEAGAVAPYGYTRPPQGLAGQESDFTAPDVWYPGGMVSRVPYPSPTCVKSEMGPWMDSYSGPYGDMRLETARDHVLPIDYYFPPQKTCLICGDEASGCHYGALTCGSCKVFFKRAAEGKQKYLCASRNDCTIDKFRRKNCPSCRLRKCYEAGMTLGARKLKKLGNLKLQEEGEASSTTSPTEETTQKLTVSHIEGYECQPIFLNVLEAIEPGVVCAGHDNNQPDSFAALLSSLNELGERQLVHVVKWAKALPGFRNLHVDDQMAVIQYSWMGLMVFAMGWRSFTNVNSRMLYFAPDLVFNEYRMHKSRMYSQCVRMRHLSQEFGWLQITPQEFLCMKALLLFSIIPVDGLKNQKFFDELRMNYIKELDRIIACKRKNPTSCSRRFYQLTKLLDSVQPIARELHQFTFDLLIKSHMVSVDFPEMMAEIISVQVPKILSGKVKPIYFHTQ
Method: FIG. 2 is a graph showing the effect of N-(4-chlorophenyl)-(Z,Z)-2,3-bis(cyclopropyl-methylene)cyclopentane carboxamide on the activation of the androgen receptor in CV1 cells, as described in Example 4.
Ligand dependent transcription assays were performed as described in Schnmidt et al. "Identification of a new member of the steroid hormone receptor superfamily that is activated by a peroxisome proliferator and fatty acids," Mol. Endocrinol. 6:1634-1641 (1992). A luciferase cDNA expressed under the control of the promoter region of the probasin gene that confers androgen receptor dependent transcription was used as a reporter gene, see Rennie et al. "Characterization of two cis-acting DNA elements involved in the androgen regulation of the probasin gene" Mol Endocrinol. 7:23-36 (1993). The promoter region, -426 to +40 of the rat probasin gene was amplified by polymerase chain reaction (PCR) and inserted upstream of the luciferase cDNA of pGL3 Basic plasmid (Promega). The expression vector pSGAR that expressed the normal human AR was used as a source of receptor, see, Chang et al. "Molecular cloning of human and rat complementary DNA encoding androgen receptors," Science 240:324-326 (1988). Transient transfection of CV1 cells was performed by plating cells (1.5×10^5 per mL) into 12 well dishes in phenol red-free medium supplemented with 10% fetal calf serum treated with activated charcoal to remove endogenous steroids. Cells were then transfected the following day by addition of a calcium phosphate precipitate of plasmid DNA. Cells were then washed with fresh media after an overnight incubation and ligands were added. Cell extracts were prepared after forty eight hours and assayed for luciferase enzyme activity using the Luciferase Assay System (Promega). Each transfection was performed in triplicate and the […] of each sample was measured using the AutoChemiluminometer (Berthold).

androgen receptor [3] = molecular target: T1, androgen receptor; assay: Binding to the human androgen receptor (hAR), displacement of [3H]-DHT, stable CHO transfectants; design: expressed in transfected cells; cytosol, 100,000×g supernatant; conditions: stable transfectants of CHO cells
Method: Binding to the Androgen Receptor
All samples were prepared in duplicate. […] Free steroids were removed by addition of dextran-coated charcoal followed by centrifugation at 3,000×g for fifteen minutes at 4° C.
47: 1080-1088 (1995) except that stable transfectants of CHO cells were employed (gift from Prof. Michael McPhaul Southwestern Medical Center, Dallas, Tex.) that typically express 30-80 fmoles receptor/mg soluble protein.

| Structure (SMILES) | pPBluc, Light Units ± std ([1]; DHT 10^-7 M) [Light Units] | pPBluc, Light Units ± std ([1]; DHT 10^-9 M) [Light Units] | antagonism of the action of testosterone on DDT1 cells (DDT1 cells) | inhibition of testosterone-induced DDT1 cell growth, comparison with hydroxyflutamide (DDT1 cells) | effect on testosterone-induced cell proliferation (DDT1 cells; compound at 10 μM with 10 nM testosterone) | effect on cell proliferation, compound alone (DDT1 cells; without testosterone, serum-free medium) | inhibition of transactivation mediated by DHT (androgen receptor [2]; CV1 cells, 10 nM DHT) | luciferase expression from the pPBluc reporter gene, compound alone (androgen receptor [2]; CV1 cells, without DHT) | IC50 (androgen receptor [2]; read-out: Fifty percent inhibition of transactivation) [nM] | blocking of the binding of 3H-DHT (androgen receptor [3]) |
| --- | --- | --- | --- | --- | --- | --- | --- | --- | --- | --- |
| C[C@]12CCC(=O)C[C@@H]1CC[C@@H]1[C@@H]2CC[C@]2(C)[C@@H](O)CC[C@@H]12 [DHT, 5α-dihydrotestosterone] | 3300 ± 1100 | 3000 ± 300 |  |  |  |  |  |  |  |  |
| O=C(Nc1ccc(Cl)cc1)C1CCC(=C/C2CC2)/C1=C\C1CC1 (stereo not shown) [N-(4-chlorophenyl)-(Z,Z)-2,3-bis(cyclopropylmethylene)cyclopentane carboxamide] |  |  | antagonizes the action of testosterone on DDT1 cells | inhibits testosterone-induced DDT1 cell growth in a manner similar to that of hydroxyflutamide | reduced cell proliferation to levels close to that of the ethanol mock control | little or no effect on cell growth by itself; also recorded: little or no effect on cell proliferation | inhibited the transactivation mediated by DHT in a dose dependent manner | did not affect luciferase expression | ~2000 | blocks the binding of ^3 H-DHT to the human androgen receptor expressed in stable transfectants of CHO cells at doses comparable to those that antagonize testosterone in DDT1 cells |
